Key:
[1] = tested on: MM.1S-PD-L1 multiple myeloma cells; assay: Subcutaneous MM.1S-PD-L1 multiple myeloma mouse model, tumor volume; assay type: in vivo
Protocol: MM.1S multiple myeloma cells were engineered to express PD-L1 and are referred to as MM.1S-PD-L1. Pre-activated and expanded T cells (20×10^6) were administered on Day 19 after MM.1S-PDL1 tumor cell inoculation subcutaneously (SC). BCMAxCD3 bispecific (0.3 or 1 mg/kg) or negative bispecific (1 mg/kg) was administered IV on Day 21 and dosed Q7Dx3. Anti-PD-1 mAb was administered at 5 mg/kg intraperitoneally (IP) twice a week starting on Day 21. Tumor measurements were recorded 2 to 3 times a week using digital calipers. N (at study start) is 5-12 animals per group.

[2] = tested on: adult patients with advanced multiple myeloma; assay: Phase 1 clinical study NCT03269136, patient response per IMWG criteria; assay type: in vivo, human
Source text: This Example illustrates an ongoing Phase 1 open-label, multicenter clinical study of PF-06863135 (BCMA×CD3 bispecific) as monotherapy and in combination with sasanlimab, lenalidomide or pomalidomide, in adult patients with advanced multiple myeloma who have relapsed from or are refractory to standard therapy. The study has been registered on ClinicalTrials.gov with identifier NCT03269136 and was first posted August 2017. Study results for Part 1 of the trial and additional arms for the study are described in this Example.
Part 1 of the Study is the […] single agent dose escalation arm at the dose levels of 0.1, 0.3, 1, 3, 10, 30, and 50 μg/kg Q1W by intravenous (IV) administration, and at the dose levels of 80, 130, 215, 360, 600 and 1000 μg/kg Q1W by subcutaneous (SC) administration. Upon reaching maximum tolerated dose (MTD)/maximum administered dose (MAD), patients can be treated at a dose level selected from the foregoing dose levels described in this paragraph, and below the MTD/MAD fora Q2W administration, both IV and SC, to further support the recommended phase 2 dose (RP2D) decision. For the study, dose limiting toxicity observation period is set at 21 days for Q1W dosing and 28 days for Q2W dosing. The treatment cycle, aka cycle, for Q1W dosing would be 3 weeks, and for Q2W dosing would be four weeks.
Clinical Outcome of Part 1 of the Study. As of 15 Apr. 2020, a total of 23 patients were enrolled in Part 1 of the study and had been treated with PF-06863135 administered intravenously (IV) at 0.1 (N=2), 0.3 (N=3), 1 (N=2), 3 (N=3), 10 (N=2), 30 (N=5), and 50 (N=6) μg/kg. As of Aug. 21, 2020, a total of 30 patients were enrolled in Part 1 of the study and had been treated with PF-06863135 administered subcutaneously (SC) at 80 (N=6), 130 (N=4), 215 (N=4), 360 (N=4), 600 (N=6) and 1000 (N=6) μg/kg. Safety and efficacy data were available for in 23 IV and 30 SC treated patients per IMWG (International Myeloma Working Group) criteria.
Part 1.1 of the Study is an alternative maintenance dose escalation arm for single agent PF-06863135. If excessive toxicity occurs or the maximum tolerated dose (MTD)/maximum administered dose (MAD) is reached at a dose level that is earlier than desired in Part 1 of the study described above, a priming dose will be administered one week prior to the day 1 cycle 1 administration of the dose (maintenance dose) at this dose level and for all subsequent dose levels in the dose escalation that may be initiated for Part 1.1. The priming dosing will be at a lower dose level than the maintenance dose.
Clinical outcome of Part 1.1 of the Study. As of Feb. 4, 2021, a total of 20 patients were enrolled and treatment in Part 1.1 of the Study, with cohort of 7 patients at a 600 μg/kg priming dose followed by 1000 μg/kg Q1W dosing, and a cohort of 13 patients at a 600 μg/kg priming dose followed by 1000 μg/kg Q2W dosing. The CRS in these two cohorts is described in Table 13. Introducing of priming dose decreased medium duration of CRS by 50%, from 4 days to 2 days. The dose frequency in part 1.1 of the study (Q1W v. Q2W) had no impact on the CRS. Patient response of Part 1.1 of the Study is described in Table 14.

[3] = 600 μg/kg priming, 1000 μg/kg Q1W SC, N = 7
[4] = 600 μg/kg priming, 1000 μg/kg Q2W SC, N = 13

PF-06863135: heterodimeric humanized full-length bispecific antibody, one BCMA binding arm and one CD3 binding arm, modified human IgG2Δa Fc
Tumor Volume ± SEM ([1]; day 14 post inoculation (before dosing), bispecific 0.3 mg/kg IV Q7Dx3 from Day 21, anti-PD-1 5 mg/kg IP twice a week): 34.4 ± 9.5 mm^3 | Tumor Volume ± SEM ([1]; day 14 post inoculation (before dosing), bispecific 1 mg/kg IV Q7Dx3 from Day 21, anti-PD-1 5 mg/kg IP twice a week): 26.4 ± 7.5 mm^3 | Tumor Volume ± SEM ([1]; day 18 post inoculation (before dosing), bispecific 0.3 mg/kg IV Q7Dx3 from Day 21, anti-PD-1 5 mg/kg IP twice a week): 91.6 ± 18 mm^3 | Tumor Volume ± SEM ([1]; day 18 post inoculation (before dosing), bispecific 1 mg/kg IV Q7Dx3 from Day 21, anti-PD-1 5 mg/kg IP twice a week): 92 ± 17.1 mm^3 | Tumor Volume ± SEM ([1]; day 20 post inoculation (before dosing), bispecific 0.3 mg/kg IV Q7Dx3 from Day 21, anti-PD-1 5 mg/kg IP twice a week): 122.5 ± 20.7 mm^3 | Tumor Volume ± SEM ([1]; day 20 post inoculation (before dosing), bispecific 1 mg/kg IV Q7Dx3 from Day 21, anti-PD-1 5 mg/kg IP twice a week): 130.7 ± 24.6 mm^3 | Tumor Volume ± SEM ([1]; day 25 post inoculation, bispecific 0.3 mg/kg IV Q7Dx3 from Day 21, anti-PD-1 5 mg/kg IP twice a week): 403 ± 59 mm^3 | Tumor Volume ± SEM ([1]; day 25 post inoculation, bispecific 1 mg/kg IV Q7Dx3 from Day 21, anti-PD-1 5 mg/kg IP twice a week): 601.1 ± 70 mm^3 | Tumor Volume ± SEM ([1]; day 28 post inoculation, bispecific 0.3 mg/kg IV Q7Dx3 from Day 21, anti-PD-1 5 mg/kg IP twice a week): 403.3 ± 67.6 mm^3 | Tumor Volume ± SEM ([1]; day 28 post inoculation, bispecific 1 mg/kg IV Q7Dx3 from Day 21, anti-PD-1 5 mg/kg IP twice a week): 482.9 ± 32.6 mm^3 | Tumor Volume ± SEM ([1]; day 32 post inoculation, bispecific 0.3 mg/kg IV Q7Dx3 from Day 21, anti-PD-1 5 mg/kg IP twice a week): 603.6 ± 151.6 mm^3 | Tumor Volume ± SEM ([1]; day 32 post inoculation, bispecific 1 mg/kg IV Q7Dx3 from Day 21, anti-PD-1 5 mg/kg IP twice a week): 410.5 ± 82.7 mm^3 | Tumor Volume ± SEM ([1]; day 35 post inoculation, bispecific 0.3 mg/kg IV Q7Dx3 from Day 21, anti-PD-1 5 mg/kg IP twice a week): 835.1 ± 77.2 mm^3 | Tumor Volume ± SEM ([1]; day 35 post inoculation, bispecific 1 mg/kg IV Q7Dx3 from Day 21, anti-PD-1 5 mg/kg IP twice a week): 627.9 ± 111.8 mm^3 | Tumor Volume ± SEM ([1]; day 39 post inoculation, bispecific 0.3 mg/kg IV Q7Dx3 from Day 21, anti-PD-1 5 mg/kg IP twice a week): 1569.3 ± 151.8 mm^3 | Tumor Volume ± SEM ([1]; day 39 post inoculation, bispecific 1 mg/kg IV Q7Dx3 from Day 21, anti-PD-1 5 mg/kg IP twice a week): 1436.8 ± 276.4 mm^3 | patients achieving a complete response ([2]; 50 μg/kg IV): 1 patient | OR (percent) ([2]; 215 μg/kg SC, N = 4): (75%) | OR (responders/patients) ([2]; 215 μg/kg SC, N = 4): 3/4 | PR (number of patients) ([2]; 215 μg/kg SC, N = 4): 1 | sCR (number of patients) ([2]; 215 μg/kg SC, N = 4): 2 | OR (percent) ([2]; 360 μg/kg SC, N = 4): (75%) | OR (responders/patients) ([2]; 360 μg/kg SC, N = 4): 3/4 | PD (number of patients) ([2]; 360 μg/kg SC, N = 4): 1 | VGPR (number of patients) ([2]; 360 μg/kg SC, N = 4): 2 | sCR (number of patients) ([2]; 360 μg/kg SC, N = 4): 1 | OR (percent) ([2]; 600 μg/kg SC, N = 6): (67%) | OR (responders/patients) ([2]; 600 μg/kg SC, N = 6): 4/6 | PD (number of patients) ([2]; 600 μg/kg SC, N = 6): 1 | VGPR (number of patients) ([2]; 600 μg/kg SC, N = 6): 2 | sCR (number of patients) ([2]; 600 μg/kg SC, N = 6): 2 | CR (number of patients) [2, 3]: 2 | OR (percent) [2, 3]: (57%) | OR (responders/patients) [2, 3]: 4/7 | PR (number of patients) [2, 3]: 1 | VGPR (number of patients) [2, 3]: 1 | OR (percent) [2, 4]: (54%) | OR (responders/patients) [2, 4]: 7/13 | PD (number of patients) [2, 4]: 3 | PR (number of patients) [2, 4]: 3 | VGPR (number of patients) [2, 4]: 4 | CR (number of patients) ([2]; 1000 μg/kg SC, N = 6): 1 | OR (percent) ([2]; 1000 μg/kg SC, N = 6): (83%) | OR (responders/patients) ([2]; 1000 μg/kg SC, N = 6): 5/6 | PD (number of patients) ([2]; 1000 μg/kg SC, N = 6): 1 | PR (number of patients) ([2]; 1000 μg/kg SC, N = 6): 1 | VGPR (number of patients) ([2]; 1000 μg/kg SC, N = 6): 3 | clinical efficacy ([2]; 600 and 1000 μg/kg SC): seen in most patients | subjects with best response of stable disease ([2]; IV cohorts (0.3-50 μg/kg)): Ten | patients achieving a minimal response ([2]; IV cohorts, at 3 μg/kg and 50 μg/kg IV): 2 patients

— US20230340137A1, “METHODS, THERAPIES AND USES FOR TREATING CANCER” (PFIZER INC., priority 2020, published 2023)
